Molecules are shown by their SMILES. pIC50: −log10 of the molar value.

For one experiment, the system named is U87MG EGFRvA. The experiment is described as follows: Cell growth suppression assay (CCK-8) using small molecular inhibitors against EGFR. Format: cell-based, human. The method, then:
(§1) Methods: cells in the log-phase growth were plated in 96-well plates with 3000 cells/well. […] The medium were replaced with fresh medium containing 10% CCK-8 reagents and incubated for another 2 h. The OD450 value was then measured.

The next experiment deals with U87MG EGFRwt. The description is as above. Format: cell-based, human. The following applies: U87MG EGFRwt cells, 72 h with inhibitor, CCK-8 OD450. How it is done:
as §1

With `C#Cc1cccc(Nc2ncnc3cc(OCCOC)c(OCCOC)cc23)c1` [Erlotinib], in the experiment with U87MG EGFRvA (FIG. 7), the “sensitivity of cell line stably expressing EGFRvA compared with cell line stably expressing EGFR” value is on record as “lower sensitivity”.
On to `COc1cc2ncnc(Nc3cccc(Cl)c3)c2cc1OC` [AG1478], for which the pIC50 is 5.39 in the experiment with U87MG EGFRvA (U87MG EGFRvA cells, 72 h with inhibitor, CCK-8 OD450) and 6.05 with U87MG EGFRwt. For the same compound, in the experiment with U87MG EGFRvA (U87MG EGFRvA versus U87MG EGFRwt), the “IC50 ratio (EGFRvA/EGFRwt)” value was 4.56.

What is called pIC50 is the IC50 on a negative log10 scale, so that one unit is a factor of ten. Lower therefore signals a high IC50.
